Experimental data from ChEMBL document CHEMBL1156082, “Novel orally active morpholine N-arylsulfonamides gamma-secretase inhibitors with low CYP 3A4 liability” (Bioorg Med Chem Lett, 2009).
One block for each compound: values may come before it.

How the values were obtained:
[1] = Inhibition of gamma-secretase assessed as reduction in membrane amyloid beta40 production
[2] = Inhibition of gamma-secretase assessed as reduction in cell amyloid beta40 production
[3] = AUC (0 to 6 hrs) in rat blood at 10 mg/kg, po; assay type: ADME, organism-based; parameters: time < 6 hr, dose 10 mg/kg, route oral
Mus musculus [4] = experiment: Reduction of amyloid beta40 level in TgCRND8 mouse plasma at 30 mg/kg, sc after 3 hrs; assay type: functional; parameters: scale not given: the % may be the effect or the level left; conditions: route subcutaneous
[5] = Drug level in rat brain at 10 mg/kg, po; assay type: ADME, organism-based; parameters: dose 10 mg/kg, route oral
Mus musculus [6] = experiment: Reduction of amyloid beta40 level in TgCRND8 mouse brain drug dosed po once daily for 5 days; assay type: functional; conditions: 120 h
Mus musculus [7] = experiment: Reduction of amyloid beta40 level in TgCRND8 mouse plasma drug dosed po once daily for 5 days; assay type: functional; conditions: 120 h
[8] = Inhibition of gamma-secretase-mediated notch processing by whole cell assay
[9] = Ratio of IC50 for gamma-secretase-mediated notch processing to IC50 for gamma-secretase assessed as reduction in cell amyloid beta40 production

- IC50 [1]: 30 nM
- AUC [5]: 703 ng·h/mL
SMILES: CC(C)(C(=O)O)C1CCN(C(=O)OC2([C@H]3COC[C@@H](C4CC4)N3S(=O)(=O)c3ccc(Cl)cc3)CC2)CC1

- IC50 [1]: 1.1 nM
- AUC(0-t) at 6 h [3]: 1370 ng·h/mL
SMILES: CC1(C)OC[C@H](C2(OC(=O)N3CC4CCC(C3)N4CCO)CC2)N(S(=O)(=O)c2ccc(Cl)cc2)[C@@H]1C1CC1

- IC50 [1]: 4.6 nM
- AUC(0-t) at 6 h [3]: 6 ng·h/mL
SMILES: CC(=O)N1C2CCC1CN(C(=O)OC1([C@H]3COC(C)(C)[C@@H](C4CC4)N3S(=O)(=O)c3ccc(Cl)cc3)CC1)C2

- IC50 [1]: 12 nM
SMILES: O=C(OC1([C@H]2COC[C@@H](c3cc(F)cc(F)c3)N2S(=O)(=O)c2ccc(Cl)cc2)CC1)N1CC[C@H](O)C1
- Activity (Mus musculus [4]): 21%

- IC50 [1]: 8.9 nM
- IC50 [2]: 31 nM
- AUC(0-t) at 6 h [3]: 567 ng·h/mL
SMILES: CN(C)CC(=O)N1C2CCC1CN(C(=O)OC1([C@H]3COC[C@@H](C4CC4)N3S(=O)(=O)c3ccc(Cl)cc3)CC1)C2

- IC50 [1]: 10 nM
- IC50 [2]: 25 nM
- AUC(0-t) at 6 h [3]: 1100 ng·h/mL
SMILES: CCN1C2CCC1CN(C(=O)OC1([C@H]3COC[C@@H](C4CC4)N3S(=O)(=O)c3ccc(Cl)cc3)CC1)C2

- IC50 [1]: 2.4 nM
- IC50 [2]: 17 nM
- AUC(0-t) at 6 h [3]: 2910 ng·h/mL
SMILES: CN1CC2CCC(C1)N2C(=O)OC1([C@H]2COC[C@@H](C3CC3)N2S(=O)(=O)c2ccc(Cl)cc2)CC1

- IC50 [1]: 20 nM
- IC50 [2]: 31 nM
- AUC(0-t) at 6 h [3]: 11 ng·h/mL
SMILES: O=C(OC1([C@H]2COC[C@@H](C3CC3)N2S(=O)(=O)c2ccc(Cl)cc2)CC1)N1CC[C@H](OCCO)C1

- IC50 [1]: 37 nM
SMILES: C[C@@H]1CN(C(=O)OC2([C@H]3COC[C@@H](C4CC4)N3S(=O)(=O)c3ccc(Cl)cc3)CC2)CCN1CCO

- IC50 [1]: 27 nM
SMILES: O=C(OC1([C@H]2COC[C@@H](C3CC3)N2S(=O)(=O)c2ccc(Cl)cc2)CC1)N1CC[C@H](O)C1

The remaining lines, values behind:

SMILES: CC(=O)N1C2CCC1CN(C(=O)OC1([C@H]3COC[C@@H](C4CC4)N3S(=O)(=O)c3ccc(Cl)cc3)CC1)C2
- IC50 [1]: 15 nM
- IC50 [2]: 25 nM
- AUC(0-t) at 6 h [3]: 871 ng·h/mL

SMILES: C[C@H]1OC[C@H](C2(OC(=O)N3CC4CCC(C3)N4CCO)CC2)N(S(=O)(=O)c2ccc(Cl)cc2)[C@@H]1C1CC1
- IC50 [1]: 0.9 nM

SMILES: CN1C2CCC1CN(C(=O)OC1([C@H]3COC[C@@H](C4CC4)N3S(=O)(=O)c3ccc(Cl)cc3)CC1)C2
- IC50 [1]: 4.6 nM
- Activity (Mus musculus [4]): -88%
- IC50 [2]: 20 nM
- AUC(0-t) at 6 h [3]: 939 ng·h/mL

SMILES: O=C(OC[C@H]1CCC[C@@H](c2cc(F)cc(F)c2)N1S(=O)(=O)c1ccc(Cl)cc1)N1CCN(CCO)CC1
- IC50 [1]: 41 nM
- IC50 [2]: 167 nM

SMILES: O=C(OC1([C@H]2COC[C@@H](C3CC3)N2S(=O)(=O)c2ccc(Cl)cc2)CC1)N1C2CCC1CNC2
- IC50 [1]: 17 nM
- IC50 [2]: 72 nM
- AUC(0-t) at 6 h [3]: 4660 ng·h/mL

SMILES: O=C(OC1([C@H]2COC[C@@H](C3CC3)N2S(=O)(=O)c2ccc(Cl)cc2)CC1)N1CC[C@H](NS(=O)(=O)C(F)(F)F)C1
- IC50 [1]: 49 nM
- AUC(0-t) at 6 h [3]: 870 ng·h/mL

SMILES: O=C(OC1([C@H]2COC[C@@H](C3CC3)N2S(=O)(=O)c2ccc(Cl)cc2)CC1)N1C2CCC1CN(CCO)C2
- IC50 [1]: 15 nM
- IC50 [2]: 27 nM
- AUC(0-t) at 6 h [3]: 1280 ng·h/mL

SMILES: O=C(OC1([C@H]2CCC[C@@H](c3cc(F)cc(F)c3)N2S(=O)(=O)c2ccc(Cl)cc2)CC1)N1CCN(CCO)CC1
- IC50 [2]: 5 nM

SMILES: O=C(OC1([C@H]2COC[C@@H](C3CC3)N2S(=O)(=O)c2ccc(Cl)cc2)CC1)N1CC2CCC(C1)N2CCO
- IC50 [1]: 7.9 nM
- ED50 (Mus musculus [6]): 100 mg/kg
- ED50 (Mus musculus [7]): 10 mg/kg
- IC50 [8]: 194 nM
- Activity (Mus musculus [4]): -93%
- Ratio IC50 [9]: 13
- IC50 [2]: 15 nM
- AUC(0-t) at 6 h [3]: 1920 ng·h/mL

SMILES: NC(=O)CC1CCN(C(=O)OC2([C@H]3COC[C@@H](C4CC4)N3S(=O)(=O)c3ccc(Cl)cc3)CC2)CC1
- IC50 [1]: 14 nM
- IC50 [2]: 41 nM
- AUC(0-t) at 6 h [3]: 35 ng·h/mL

SMILES: O=C(O)CC1CCN(C(=O)OC2([C@H]3COC[C@@H](C4CC4)N3S(=O)(=O)c3ccc(Cl)cc3)CC2)CC1
- IC50 [1]: 24 nM
- AUC [5]: 2460 ng·h/mL

SMILES: C[C@@H]1CN(C(=O)OC2([C@H]3COC[C@@H](c4cc(F)cc(F)c4)N3S(=O)(=O)c3ccc(Cl)cc3)CC2)CCN1CCO
- IC50 [1]: 5.5 nM
- Activity (Mus musculus [4]): -87%

SMILES: O=C(OC1([C@H]2COC[C@@H](C3CC3)N2S(=O)(=O)c2ccc(Cl)cc2)CC1)N1CC2CCC(C1)N2
- IC50 [1]: 7.1 nM
- Activity (Mus musculus [4]): -90%
- IC50 [2]: 25 nM
- AUC(0-t) at 6 h [3]: 4360 ng·h/mL

SMILES: O=C(OC[C@H]1COC[C@@H](c2cc(F)cc(F)c2)N1S(=O)(=O)c1ccc(Cl)cc1)N1CCN(CCO)CC1
- IC50 [1]: 76 nM
- IC50 [2]: 95 nM

SMILES: CC(C)(CO)N1CCN(C(=O)OC2([C@H]3COC[C@@H](C4CC4)N3S(=O)(=O)c3ccc(Cl)cc3)CC2)CC1
- IC50 [1]: 9.5 nM
- Activity (Mus musculus [4]): -78%
- IC50 [2]: 9 nM
- AUC(0-t) at 6 h [3]: 446 ng·h/mL

SMILES: CC(=O)N1C2CCC1CN(C(=O)OC1([C@H]3CO[C@H](C)[C@@H](C4CC4)N3S(=O)(=O)c3ccc(Cl)cc3)CC1)C2
- IC50 [1]: 4 nM
- AUC(0-t) at 6 h [3]: 23 ng·h/mL

SMILES: CC(C)(CO)N1CCN(C(=O)OC2([C@H]3COC[C@@H](c4cc(F)cc(F)c4)N3S(=O)(=O)c3ccc(Cl)cc3)CC2)CC1
- IC50 [1]: 1.4 nM
- Activity (Mus musculus [4]): -68%

SMILES: CC(=O)N1C2CCC1CN(C(=O)OC1([C@H]3CO[C@@H](C)[C@@H](C4CC4)N3S(=O)(=O)c3ccc(Cl)cc3)CC1)C2
- IC50 [1]: 5.4 nM
- AUC(0-t) at 6 h [3]: 178 ng·h/mL

SMILES: C[C@@H]1OC[C@H](C2(OC(=O)N3CC4CCC(C3)N4CCO)CC2)N(S(=O)(=O)c2ccc(Cl)cc2)[C@@H]1C1CC1
- IC50 [1]: 1.5 nM

SMILES: CS(=O)(=O)N1C2CCC1CN(C(=O)OC1([C@H]3COC[C@@H](C4CC4)N3S(=O)(=O)c3ccc(Cl)cc3)CC1)C2
- IC50 [1]: 41 nM
